From patent US10670605B2, “Cysteine reactive probes and uses thereof” (The Scripps Research Institute, priority 2015, dated 2020)

Legend:
Assay in all cases: Competitive isoTOP-ABPP in situ (fragment-treated cells)
Format in all cases: cell-based
[1] = target: cysteines in MDA-MB-231 and Ramos cells (Homo sapiens, UniProt Q9ULV4); settings: 200 μM, insitu
[2] = target: T1, cysteines in MDA-MB-231 and Ramos cells (Homo sapiens, UniProt Q9UMS0); settings: 200 μM, insitu, 231
T1 sequence (Q9UMS0 10-254): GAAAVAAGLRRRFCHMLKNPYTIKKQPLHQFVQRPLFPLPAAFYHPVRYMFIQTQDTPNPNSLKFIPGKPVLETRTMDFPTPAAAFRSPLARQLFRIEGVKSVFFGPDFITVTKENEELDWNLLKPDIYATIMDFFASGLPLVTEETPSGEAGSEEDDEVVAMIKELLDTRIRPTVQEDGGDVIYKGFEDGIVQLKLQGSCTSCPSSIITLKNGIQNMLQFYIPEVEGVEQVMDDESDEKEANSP

[3] = target: T2, cysteines in MDA-MB-231 and Ramos cells (Homo sapiens, UniProt Q9Y3A3); settings: 200 μM, insitu, ramos
T2 sequence (Q9Y3A3 1-225): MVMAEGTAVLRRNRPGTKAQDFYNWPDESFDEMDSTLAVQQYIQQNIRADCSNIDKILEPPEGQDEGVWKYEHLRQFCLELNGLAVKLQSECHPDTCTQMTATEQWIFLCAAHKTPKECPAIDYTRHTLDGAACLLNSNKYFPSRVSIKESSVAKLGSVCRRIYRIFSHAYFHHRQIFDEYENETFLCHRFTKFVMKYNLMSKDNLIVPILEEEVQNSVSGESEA

[4] = target: T3, cysteines in MDA-MB-231 and Ramos cells (Homo sapiens, UniProt Q9BQ69); settings: 200 μM, insitu, 231
T3 sequence (Q9BQ69 1-325): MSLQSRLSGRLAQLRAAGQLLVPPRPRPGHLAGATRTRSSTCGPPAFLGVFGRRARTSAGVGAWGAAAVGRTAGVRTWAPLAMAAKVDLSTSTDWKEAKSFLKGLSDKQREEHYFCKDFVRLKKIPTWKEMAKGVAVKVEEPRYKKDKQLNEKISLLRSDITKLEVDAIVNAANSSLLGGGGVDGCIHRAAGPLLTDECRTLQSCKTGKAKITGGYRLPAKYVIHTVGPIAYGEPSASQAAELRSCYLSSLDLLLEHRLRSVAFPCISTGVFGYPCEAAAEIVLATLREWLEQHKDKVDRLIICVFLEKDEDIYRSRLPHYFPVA

[5] = target: cysteines in MDA-MB-231 and Ramos cells (Homo sapiens, UniProt Q9NUY8); settings: 200 μM, insitu
[6] = target: T4, cysteines in MDA-MB-231 and Ramos cells (Homo sapiens, UniProt P04183); settings: 200 μM, insitu, 231
T4 sequence (P04183 1-234): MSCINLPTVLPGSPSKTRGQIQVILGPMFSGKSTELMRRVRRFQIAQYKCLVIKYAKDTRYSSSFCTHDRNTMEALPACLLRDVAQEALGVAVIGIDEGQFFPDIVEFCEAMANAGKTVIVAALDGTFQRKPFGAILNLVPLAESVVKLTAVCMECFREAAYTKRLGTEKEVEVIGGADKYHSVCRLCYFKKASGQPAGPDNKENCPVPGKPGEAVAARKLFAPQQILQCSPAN

[7] = target: T5, cysteines in MDA-MB-231 and Ramos cells (Homo sapiens, UniProt Q09161); settings: 200 μM, insitu, 231
T5 sequence (Q09161 1-790): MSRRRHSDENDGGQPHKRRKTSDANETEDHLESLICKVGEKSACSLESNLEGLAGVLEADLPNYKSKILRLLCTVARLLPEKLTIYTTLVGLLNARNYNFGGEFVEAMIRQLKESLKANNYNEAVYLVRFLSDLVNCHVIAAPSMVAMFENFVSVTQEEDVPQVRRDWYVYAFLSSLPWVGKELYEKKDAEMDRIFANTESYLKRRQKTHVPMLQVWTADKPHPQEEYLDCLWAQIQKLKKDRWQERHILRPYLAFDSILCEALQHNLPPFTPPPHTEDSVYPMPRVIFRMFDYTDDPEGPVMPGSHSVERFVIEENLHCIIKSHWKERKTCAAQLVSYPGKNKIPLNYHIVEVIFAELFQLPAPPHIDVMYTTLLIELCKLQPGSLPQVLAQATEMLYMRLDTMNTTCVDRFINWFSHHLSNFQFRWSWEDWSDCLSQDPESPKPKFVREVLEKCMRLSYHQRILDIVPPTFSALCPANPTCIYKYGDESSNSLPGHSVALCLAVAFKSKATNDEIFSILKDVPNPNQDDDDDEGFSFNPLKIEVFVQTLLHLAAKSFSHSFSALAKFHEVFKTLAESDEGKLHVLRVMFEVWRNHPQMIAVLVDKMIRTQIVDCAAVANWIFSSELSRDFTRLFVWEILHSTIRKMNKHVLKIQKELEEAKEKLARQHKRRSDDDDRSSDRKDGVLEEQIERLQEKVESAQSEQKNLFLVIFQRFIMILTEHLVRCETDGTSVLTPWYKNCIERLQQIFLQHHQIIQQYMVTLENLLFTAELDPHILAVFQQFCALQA

[8] = target: T6, cysteines in MDA-MB-231 and Ramos cells (Homo sapiens, UniProt P21980); settings: 200 μM, insitu, 231
T6 sequence (P21980 1-687): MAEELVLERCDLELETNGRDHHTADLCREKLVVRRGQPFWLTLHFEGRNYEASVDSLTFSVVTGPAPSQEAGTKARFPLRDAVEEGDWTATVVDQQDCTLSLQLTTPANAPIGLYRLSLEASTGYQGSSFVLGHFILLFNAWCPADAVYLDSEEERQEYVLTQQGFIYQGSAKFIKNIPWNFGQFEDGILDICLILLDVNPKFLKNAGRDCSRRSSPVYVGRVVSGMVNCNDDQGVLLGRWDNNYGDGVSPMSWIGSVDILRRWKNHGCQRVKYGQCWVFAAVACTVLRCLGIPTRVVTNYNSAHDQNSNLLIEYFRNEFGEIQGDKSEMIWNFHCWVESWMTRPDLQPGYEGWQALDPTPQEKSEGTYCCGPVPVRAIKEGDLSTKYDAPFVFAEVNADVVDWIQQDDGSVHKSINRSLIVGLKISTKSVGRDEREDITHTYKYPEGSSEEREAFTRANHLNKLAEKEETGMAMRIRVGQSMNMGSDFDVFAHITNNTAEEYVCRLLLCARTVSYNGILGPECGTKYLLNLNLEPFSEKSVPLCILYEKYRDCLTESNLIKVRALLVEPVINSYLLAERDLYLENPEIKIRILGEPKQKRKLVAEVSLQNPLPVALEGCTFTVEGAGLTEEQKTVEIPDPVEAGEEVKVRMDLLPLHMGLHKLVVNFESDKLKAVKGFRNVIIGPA

cysteines in MDA-MB-231 and Ramos cells (Homo sapiens, UniProt Q9ULV4), sequence (Q9ULV4 whole entry): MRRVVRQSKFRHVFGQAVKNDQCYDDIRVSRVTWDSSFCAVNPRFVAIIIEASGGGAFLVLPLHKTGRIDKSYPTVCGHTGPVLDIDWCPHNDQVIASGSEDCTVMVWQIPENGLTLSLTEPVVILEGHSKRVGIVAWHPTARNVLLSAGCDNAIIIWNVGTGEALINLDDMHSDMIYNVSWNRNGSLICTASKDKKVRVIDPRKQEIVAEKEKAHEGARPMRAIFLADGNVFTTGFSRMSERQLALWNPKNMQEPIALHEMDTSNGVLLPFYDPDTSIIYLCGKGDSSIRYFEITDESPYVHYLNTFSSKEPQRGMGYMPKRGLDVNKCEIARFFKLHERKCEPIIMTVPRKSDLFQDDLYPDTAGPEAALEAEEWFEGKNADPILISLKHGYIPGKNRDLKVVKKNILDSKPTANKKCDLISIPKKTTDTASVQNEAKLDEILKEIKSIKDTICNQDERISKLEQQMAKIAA
cysteines in MDA-MB-231 and Ramos cells (Homo sapiens, UniProt Q9NUY8), sequence (Q9NUY8 whole entry): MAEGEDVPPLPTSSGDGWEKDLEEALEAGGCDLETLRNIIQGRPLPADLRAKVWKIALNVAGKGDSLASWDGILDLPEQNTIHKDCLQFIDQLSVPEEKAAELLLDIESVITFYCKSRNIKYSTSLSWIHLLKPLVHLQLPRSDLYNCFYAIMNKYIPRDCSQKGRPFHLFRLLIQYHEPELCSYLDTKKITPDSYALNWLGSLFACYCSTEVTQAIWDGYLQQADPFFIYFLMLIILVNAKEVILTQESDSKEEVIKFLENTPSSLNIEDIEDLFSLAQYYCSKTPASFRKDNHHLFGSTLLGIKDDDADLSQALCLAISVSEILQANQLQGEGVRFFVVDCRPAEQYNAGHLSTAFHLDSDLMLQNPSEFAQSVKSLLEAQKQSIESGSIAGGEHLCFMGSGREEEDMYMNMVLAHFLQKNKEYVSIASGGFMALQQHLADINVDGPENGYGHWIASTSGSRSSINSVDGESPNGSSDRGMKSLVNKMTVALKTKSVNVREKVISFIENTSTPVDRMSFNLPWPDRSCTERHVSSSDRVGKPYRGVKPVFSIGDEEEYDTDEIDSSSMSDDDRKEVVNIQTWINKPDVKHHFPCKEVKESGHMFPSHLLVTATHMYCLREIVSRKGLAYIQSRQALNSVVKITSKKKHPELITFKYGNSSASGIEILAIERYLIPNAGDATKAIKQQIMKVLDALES

## O=C(CCl)NCCc1c[nH]c2ccccc12 [compound 13]
[1]; 231
  isoTOP-ABPP ratio Q9ULV4_C420: 1.1
[1]; ramos
  isoTOP-ABPP ratio Q9ULV4_C420: 1.1
[2]
  isoTOP-ABPP ratio Q9UMS0_C213: 1.6
[3]
  isoTOP-ABPP ratio Q9Y3A3_C134: 1.9
[4]
  isoTOP-ABPP ratio Q9BQ69_C186: 1.4
[5]; 231
  isoTOP-ABPP ratio Q9NUY8_C283: 1.1
[5]; ramos
  isoTOP-ABPP ratio Q9NUY8_C283: 1.1
[6]
  isoTOP-ABPP ratio P04183_C230: 0.7
  isoTOP-ABPP ratio, cysteine P04183_C66: 1.0
[7]
  isoTOP-ABPP ratio Q09161_C44: 1.0
[8]
  isoTOP-ABPP ratio P21980_C277: 0.8
